# Test results reported in patent US20260182575A1, “MOLECULES HAVING PESTICIDAL UTILITY AND INTERMEDIATES AND PROCESSES RELATED THERETO” (CORTEVA AGRISCIENCE LLC, priority 2022, published 2026).
# Tests used:
# Format in all cases: in vivo
# [1] = system: Soybean Looper (Chrysodeixis includens, PSEPIN, SBL); experiment: Bioassay 7: soybean looper, artificial diet, 96 well plate; conditions: CL
# Procedure: (§1) The test solutions were tested against CEW, FAW, BAW, and SBL using the following procedure: an artificial lepidopteran diet (Multispecies Lepidopteran Diet, Southland Products) was distributed in 96 well plate. Twenty μL of test solution was pipetted onto a cell in the bioassay plate. […] Each treatment was replicated 5 times for each species. Approximately five first instar CEW, FAW, BAW, or SBL larva were placed on top of the diet in each cell and was contained with a clear perforated adhesive lid. Test trays were held at approximately 25° C. and ambient relative humidity prior to grading. After five days, the number of cells where all the larvae were dead were recorded as 100% and averaged across all replicates; then the percent control was measured using Abbott's correction formula (W. S. Abbott, J. Econ. Entomol. 18 (1925), pp. 265-267) as follows:
# (§2) where X=No. of live larvae on solvent check and Y=No. of live larvae on treated diet. In Table 7 the “Expected % Control” was calculated using the method described in Colby S. R., Weeds, 1967, 15, 20-22. Bioassay 8: Western Corn Rootworm (Diabrotica virgifera virgifera, DIABVI, “WCR”)
# [2] = system: Beet Armyworm (Spodoptera exigua, LAPHEG, BAW); experiment: Bioassay 7: beet armyworm, artificial diet, 96 well plate
# Procedure: as §1, §2
# [3] = system: Fall Armyworm (Spodoptera frugiperda, LAPHFR, FAW); experiment: Bioassay 7: fall armyworm, artificial diet, 96 well plate
# Procedure: as §1, §2
# [4] = system: Corn Earworm (Helicoverpa zea, HELIZE, CEW); experiment: Bioassay 7: corn earworm, artificial diet, 96 well plate
# Procedure: as §1, §2
# [5] = system: Sweet Potato Whitefly (Bemisia tabaci, BEMITA, SPW); experiment: Bioassay 2: sweet potato whitefly, cotton seedling foliar spray; conditions: AI alone
# Procedure: Stock solutions were prepared with F1 as well as for each of the active ingredients individually. Test solutions were prepared from the stock solutions. Test solutions were prepared containing F1, the individual active ingredients, and mixtures of F1 with each of the active ingredients. The test solutions for F1 and the individual active ingredients were prepared by adding 500 μL of stock solution to a 25 mL glass vial, then adding 500 μL of acetone, followed by the addition of 9 mL water with 0.025% Tween® 20 to create a 0.001% (w/v) solution. The test solutions containing mixtures of F1, and the individual active ingredients were prepared by adding 500 μL of the active ingredient stock solution to a 25 mL glass vial, followed by 500 μL of the F1 stock solution, then by the addition of 9 mL water with 0.025% Tween® 20 to create a test solution containing 0.001% (w/v) F1 and 0.001% (w/v) of the active ingredient. Each test solution was serially diluted to create desired doses of test solutions (0.001% (w/v), 0.0001% (w/v), 0.00001% (w/v), 0.000001% (w/v), 0.0000001% (w/v), and 0.00000001% (w/v)).
# The test solutions were tested against SPW using the following procedure: Cotton seedlings grown in 3-inch pots, pruned so that only one true leaf remained, were used as test substrate. Adult B. tabaci were allowed to colonize the cotton plants and lay eggs for 24 hours after which all adults were removed from the plants using compressed air. Plants were monitored for egg development, and when crawler emergence was underway (>25% emergence based on visual examination using a microscope), the plants were sprayed using the test solutions and methods described above for green peach aphids (GPA). Treated plants were held in a holding room at approximately 25° C. and ambient relative humidity (RH) prior to grading. Evaluation was conducted by counting the number of developed 2-3 instar nymphs per plant under a microscope 7-9 days after treatment. Percent control was measured using Abbott's correction formula (W. S. Abbott, J. Econ. Entomol. 18 (1925), pp. 265-267) as follows:
# where X=No. of live nymphs on solvent check plants and Y=No. of live nymphs on treated plants. In Table B2 the “Expected % Control” was calculated using the method described in Colby S. R., Weeds, 1967, 15, 20-22. Bioassay 3: Western Flower Thrips (Frankliniella occidentalis, FRANOC, “WFT”).
# [6] = system: Corn Earworm (Helicoverpa zea, HELIZE, CEW); experiment: Bioassay 4: corn earworm, artificial diet, 128-cell tray; conditions: AI alone
# Procedure: (§3) Stock solutions were prepared with F1 as well as for each of the active ingredients individually. Test solutions were prepared from the stock solutions. Test solutions were prepared containing F1, the individual active ingredients, and mixtures of F1 with each of the active ingredients. The test solution for F1 was prepared by adding 500 μL of the stock solution to a 25 mL glass vial, then adding 500 μL of a 9:1 mixture of acetone:water. The individual active ingredients were prepared by adding 500 μL of stock solution to a 25 mL glass vial, then adding 500 μL of a 9:1 mixture of acetone:water. The test solutions containing mixtures of F1, and the individual active ingredients were prepared by adding 500 μL of the active ingredient stock solution to a 25 mL glass vial, followed by 500 μL of the F1 stock solution, creating a test solution containing 0.04% (w/v) of F1 and 0.4% (w/v) of the active ingredient. Each test solution was serially diluted to create desired doses of test solutions (F1 at 0.04% (w/v), 0.004% (w/v), 0.0004% (w/v), 0.00004% (w/v), 0.000004% (w/v), and 0.0000004% (w/v) and active ingredients at 0.4% (w/v), 0.04% (w/v), 0.004% (w/v), 0.0004% (w/v), 0.00004% (w/v), and 0.000004% (w/v)).
# (§4) The test solutions were tested against CEW, FAW, and SBL using the following procedure: an artificial lepidopteran diet (Multispecies Lepidopteran Diet, Southland Products) was distributed in 128-cell bioassay trays (Frontier Agricultural Sciences™). 50 μL of test solution was pipetted into a cell in the bioassay tray. (The test solution doses of 0.04% (w/v), 0.004% (w/v), 0.0004% (w/v), 0.00004% (w/v), 0.000004% (w/v), and 0.0000004% (w/v) translated to concentrations of 5, 0.5, 0.05, 0.005, 0.0005, and 0.00005 μg/cm^2 on the diet, respectively.) A reference treatment (solvent check) was treated with the diluent only. Each treatment was replicated 8 times for each species. A 2nd instar CEW, FAW, or SBL larva was placed on top of the diet in each cell and was contained with a clear perforated adhesive lid. Test trays were held at approximately 26° C. and ambient relative humidity (RH) prior to grading.
# (§5) After 5 days, the number of live larvae were recorded from each cell and percent control was measured using Abbott's correction formula (W. S. Abbott, J. Econ. Entomol. 18 (1925), pp. 265-267) as follows:
# (§6) where X=No. of live larvae on solvent check and Y=No. of live larvae on treated diet. In Table B4 the “Expected % Control” was calculated using the method described in Colby S. R., Weeds, 1967, 15, 20-22. Bioassay 5: Neotropical Brown Stink Bug (Euschistus heros, EUSCHE, “BSB”).
# [7] = system: Soybean Looper (Chrysodeixis includens, PSEPIN, SBL); experiment: Bioassay 4: soybean looper, artificial diet, 128-cell tray; conditions: AI alone, 0.000004 wt %
# Procedure: as §3, §4, §5, §6
# [8] = system: Fall Armyworm (Spodoptera frugiperda, LAPHFR, FAW); experiment: Bioassay 4: fall armyworm, artificial diet, 128-cell tray; conditions: AI alone, 0.000004 wt %
# Procedure: as §3, §4, §5, §6
# [9] = system: Green Peach Aphid (Myzus persicae, MYZUPE, GPA); experiment: Bioassay 1: green peach aphid, cabbage seedling foliar spray; conditions: AI alone at the rate of Wt Ratio F1:AI 1:10256 (F1 0.04), 3 days
# Procedure: Bioassay 1: Green Peach Aphid (Myzus persicae, MYZUPE, “GPA”).
# Stock solutions of F1 and various active ingredients were prepared initially at a concentration of 4 milligrams per milliliter (mg/mL) for F1 and 0.1 mg/mL for the active ingredients, respectively, using a 1:1 mixture of acetone:methanol as a diluent. Stock solutions were prepared with F1 as well as for each of the active ingredients individually. Test solutions were prepared from the stock solutions. Test solutions were prepared containing F1, the individual active ingredients, and mixtures of F1 with each of the active ingredients. The test solutions for F1 and the individual active ingredients were prepared by adding 750 microliters (μL) of stock solution to a 25 mL glass vial, then adding 750 μL of 1:1 acetone:methanol solvent, followed by the addition of 13.5 mL water with 0.025% Tween® 20 to create a 0.0005% (weight/volume (w/v)) solution. The test solutions containing mixtures of F1, and the individual active ingredients were prepared by adding 750 μL of the active ingredient stock solution to a 25 mL glass vial, followed by 750 μL of the F1 stock solution, then by the addition of 13.5 mL water with 0.025% Tween® 20 to create a test solution containing 0.0005% (w/v) F1 and 0.0005% (w/v) of the active ingredient. Each test solution was serially diluted to create desired doses of test solutions (0.0005% (w/v), 0.000125% (w/v), 0.00003125% (w/v), 0.0000078% (w/v), 0.00000195% (w/v), and 0.0000005% (w/v)). In test solutions containing mixtures of F1 and the active ingredients, the active ingredients were diluted as described above, but the concentration of F1 was held constant (0.04% (w/v)).
# The test solutions were tested against GPA using the following procedure: cabbage seedlings, grown in 3-inch pots with 2-3 small (3-5 centimeter (cm)) true leaves, were used as test substrate. The seedlings were infested with 20-50 GPA (wingless adult and nymph stages) one day prior to chemical application. Four pots with individual seedlings were used for each treatment. A hand-held aspirator-type sprayer was used for spraying a solution to both sides of […] leaves until runoff. Reference plants (solvent check) were sprayed with the diluent only (0.025% Tween® 20 and 10% acetone:methanol (1:1) in water). Treated plants were held in a holding room for three days at approximately 25° C. and ambient relative humidity (RH about 20% to about 45%) prior to grading. Evaluation was conducted by counting the number of live aphids per plant under a microscope three days after treatment. Percent control was measured using Abbott's correction formula (W. S. Abbott, J. Econ. Entomol. 18 (1925), pp. 265-267) as follows:
# where X=No. of live aphids on solvent check plants and Y=No. of live aphids on treated plants. In Table B1 the “Expected % Control” was calculated using the method described in Colby S. R., Weeds, 1967, 15, 20-22. Bioassay 2: Sweet Potato Whitefly (Bemisia tabaci, BEMITA, “SPW”).
Compound,Average % Control AI ([1]; AI alone at 0.4 wt %),Average % Control AI ([2]; AI alone at 0.4 wt %),Average % Control AI ([3]; AI alone at 0.4 wt %),Average % Control AI ([4]; AI alone at 0.4 wt %),also measured
O=S(=O)(CCC(F)=C(F)F)c1ncc(Cl)s1 [Fluensulfone],12.5%,0.0%,0.0%,0.0%,–
CO/C=C(/C(=O)OC)c1ccccc1COc1cccc(C(F)(F)F)n1 [Picoxystrobin],–,–,–,–,Average % Control AI ([1]; AI alone at 0.04 wt %): 0.0%; Average % Control AI ([2]; AI alone at 0.04 wt %): 0.0%; Average % Control AI ([4]; AI alone at 0.04 wt %): 0.0%
CC(C)C1CCC(Cc2ccc(Cl)cc2)C1(O)Cn1cncn1 (centres unmarked) [Ipconazole],–,0.0%,0.0%,0.0%,–
Cc1cc(C)c(C2=C(OC(=O)CC(C)(C)C)C3(CCCC3)OC2=O)c(C)c1 [Spiromesifen],12.5%,12.5%,12.5%,–,–
COc1ccc(Cl)c(S(=O)(=O)NC(=O)c2cn3cc(C(F)(F)F)cc(Cl)c3n2)c1 [Fluazaindolizine],0.0%,–,0.0%,0.0%,–
Trifloxystrobin,–,20.0%,16.6%,0.0%,–
O=c1c(-c2cccc(C(F)(F)F)c2)c([O-])[n+](Cc2cncnc2)c2ccccn12 [Triflumezopyrim],–,–,–,–,"Average % Control AI ([5]; Wt % AI 0.000001, 7-9 days): 10.1%; Average % Control AI ([5]; Wt % AI 0.00001, 7-9 days): 31.4%; Average % Control AI ([6]; 0.000004 wt %): 0.0%; Average % Control AI ([6]; 0.00004 wt %): 0.0%; Average % Control AI [7]: 12.5%; Average % Control AI [8]: 0.0%"
Cc1cc(C(F)(F)F)nn1CC(=O)N1CCC(c2nc(C3=NOC(c4c(F)cccc4F)C3)cs2)CC1 (centres unmarked) [Oxathiapiprolin],0.0%,–,–,0.0%,–
CON(C(=O)c1cn(C)nc1C(F)F)C(C)Cc1c(Cl)cc(Cl)cc1Cl (centres unmarked) [Pydiflumetofen],0.0%,0.0%,0.0%,–,–
Thiram,0.0%,–,–,0.0%,–
CC(C)c1ccc(Cl)cc1CN(C(=O)c1c(C(F)F)nn(C)c1F)C1CC1 [Isoflucypram],0.0%,0.0%,–,–,–
CNC(=O)O/N=C(\SC)C(=O)N(C)C [Oxamyl],0.0%,0.0%,0.0%,0.0%,–
CCNc1nc(CC)c(C(=O)NC(C#N)c2cccs2)s1 (centres unmarked) [Ethaboxam],0.0%,–,0.0%,12.5%,–
O=[N+]([O-])/N=C1\NCCN1Cc1ccc(Cl)nc1 [Imidacloprid],–,–,–,–,Average % Control AI ([6]; 0.000004 wt %): 0.0%; Average % Control AI ([6]; 0.00004 wt %): 0.0%; Average % Control AI [9]: 40.5%; Average % Control AI [7]: 12.5%; Average % Control AI [8]: 0.0%
CN(C(=O)c1ccccc1)c1cccc(C(=O)Nc2c(Br)cc(C(F)(C(F)(F)F)C(F)(F)F)cc2C(F)(F)F)c1F [Broflanilide],–,–,–,–,Average % Control AI ([3]; AI alone at 0.004 wt %): 0.0%
